Results taken from ChEMBL document CHEMBL3822430, “Discovery of pyrido[3,4-g]quinazoline derivatives as CMGC family protein kinase inhibitors: Design, synthesis, inhibitory potency and X-ray co-crystal structure” (Eur J Med Chem, 2016).

Legend:
[1] = target: Glycogen synthase kinase-3 (Sus scrofa, UniProt B2LUN4+I6LNT8); assay: Inhibition of porcine brain GSK3alpha/beta using GS-1 as substrate incubated for 10 mins in presence of [gamma-32 ATP] by liquid scintillation counting analysis
[2] = target: Cyclin-dependent kinase 5/CDK5 activator 1 (Homo sapiens, UniProt Q00535); assay: Inhibition of GST-tagged human recombinant CDK5/p25 expressed in Escherichia coli using histone H1 as substrate incubated for 30 mins in presence of [gamma-33 ATP] by liquid scintillation counting analysis
[3] = target: Dual specificity tyrosine-phosphorylation-regulated kinase 1A (Rattus norvegicus, UniProt Q63470); assay: Inhibition of GST-tagged rat recombinant DYRK1A expressed in Escherichia coli using myelin basic protein as substrate incubated for 30 mins in presence of [gamma-33 ATP] by liquid scintillation counting analysis
[4] = Inhibition of porcine brain CK1 delta/epsilon using CK-S as substrate incubated for 30 mins in presence of [gamma-33 ATP] by liquid scintillation counting analysis; parameters: species or system Sus scrofa
[5] = target: Dual specificity protein kinase CLK1 (Homo sapiens, UniProt P49759); assay: Inhibition of GST-tagged human recombinant CLK1 expressed in Escherichia coli using RS peptide as substrate
Dual specificity protein kinase CLK1, sequence (P49759 whole entry): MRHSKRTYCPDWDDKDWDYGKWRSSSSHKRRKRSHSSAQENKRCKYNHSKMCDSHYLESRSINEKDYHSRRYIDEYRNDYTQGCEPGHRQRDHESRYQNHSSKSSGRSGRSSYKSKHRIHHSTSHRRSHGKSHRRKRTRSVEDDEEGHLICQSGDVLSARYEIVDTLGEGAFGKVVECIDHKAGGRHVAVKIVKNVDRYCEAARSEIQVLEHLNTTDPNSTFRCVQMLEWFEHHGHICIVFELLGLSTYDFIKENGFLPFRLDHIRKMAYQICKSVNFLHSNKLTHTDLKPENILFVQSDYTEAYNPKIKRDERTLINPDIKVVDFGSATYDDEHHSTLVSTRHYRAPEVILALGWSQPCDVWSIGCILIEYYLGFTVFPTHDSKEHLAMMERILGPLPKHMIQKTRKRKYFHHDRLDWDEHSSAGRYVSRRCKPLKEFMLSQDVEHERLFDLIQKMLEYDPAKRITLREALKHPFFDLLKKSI

Cyclin-dependent kinase 5/CDK5 activator 1, sequence (Q00535 whole entry): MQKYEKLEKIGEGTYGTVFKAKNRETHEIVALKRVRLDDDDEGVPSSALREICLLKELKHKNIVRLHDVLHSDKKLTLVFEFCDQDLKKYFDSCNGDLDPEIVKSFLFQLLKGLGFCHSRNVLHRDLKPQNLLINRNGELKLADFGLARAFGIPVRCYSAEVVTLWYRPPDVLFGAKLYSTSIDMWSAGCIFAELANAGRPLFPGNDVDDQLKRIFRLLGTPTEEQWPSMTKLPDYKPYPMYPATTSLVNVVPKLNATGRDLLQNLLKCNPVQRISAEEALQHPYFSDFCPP
Cyclin-dependent kinase 5/CDK5 activator 1, sequence (Q15078 whole entry, further chain): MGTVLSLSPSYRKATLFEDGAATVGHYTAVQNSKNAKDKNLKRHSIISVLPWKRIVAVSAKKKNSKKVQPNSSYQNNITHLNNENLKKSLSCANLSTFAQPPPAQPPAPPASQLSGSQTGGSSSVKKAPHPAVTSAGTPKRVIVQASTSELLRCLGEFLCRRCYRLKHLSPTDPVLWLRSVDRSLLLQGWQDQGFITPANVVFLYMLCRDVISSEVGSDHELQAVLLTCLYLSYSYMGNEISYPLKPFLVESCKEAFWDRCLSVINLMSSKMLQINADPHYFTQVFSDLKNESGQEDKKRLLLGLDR

Row | IC50 [1] [nM] | IC50 [2] [nM] | IC50 [3] [nM] | IC50 [4] [nM] | IC50 [5] [nM] | Structure (SMILES)
1 | 9100 | 4800 | 28 | 5800 | 41 | Nc1ncc2cc3cnccc3c(N)c2n1
2 | > 10000 | > 10000 | 180 | 800 | 190 | Nc1ncc2cc3cnccc3cc2n1
3 | 2200 | > 10000 | 620 | 780 | 69 | Nc1ncc2cc3cnccc3c([N+](=O)[O-])c2n1
